Measurements: PMC13492380, “Dissecting Structural and Functional Determinants of Microtubules Stabilization through Guided Chemical Modulation” (Journal of Medicinal Chemistry, 2026)

Tests used:
[1] = tested on: taxane site of assembled cross-linked MTs; test: Displacement of FTX2 from the taxane site (fluorescence polarization); format: binding, calf; conditions: 35 °C
Procedure: Purified calf brain tubulin and chemicals were obtained as previously described. Tau-mCherry was expressed and purified as described previously. Human Kif5B-EGFP (amino acids 1-905), containing a C terminal fluorescent-tag followed by a 3C protease cleavage site and a 6 × His-tag was expressed and purified as in with some modifications. Prior to purification, cells were resuspended in 1:1 ratio of lysis buffer (30 mM HEPES pH 7.5, 300 mM NaCl, 0.5 mM ATP, 5% glycerol, 20 mM imidazole, […]) supplemented with 1× Protease inhibitor cocktail and benzonase to the final concentration of 25 units/ml. Cells were homogenized by repeated pipetting. Cells were lysed by spinning for 45 min at 40,000 rpm in 45 Ti fixed-angle rotor (Beckman Coulter) at 4 °C. The supernatant was incubated with pre-equilibrated HisPUR NiNTA agarose resin (Thermo Fisher Scientific) for 1 h in a tightly closed gravity-flow column (Thermo Fisher Scientific) at 4 °C by slowly rotating. Subsequently, the resin was washed once lysis buffer and then with buffer B (30 mM HEPES pH 7.5, 300 mM NaCl, 0.5 mM ATP, 5% glycerol, 30 mM imidazole, […]). The protein was eluted from the resin after an overnight cleavage of the 6 × His-tag with 3C HRV protease in lysis buffer at 4 °C. The eluted protein was further purified via size exclusion chromatography on Superdex 200 10/300 GL column equilibrated in exclusion buffer (30 mM HEPES pH 7.5, 300 mM NaCl, 0.5 mM ATP, 5% glycerol, […]). Peak fractions were analyzed via SDS-PAGE, pooled and the protein was concentrated with Amicon Ultra-15 Centrifugal Filter tubes (Millipore). Purified proteins were aliquoted, snap-frozen in liquid N2, and stored at −80 °C.
The equilibrium binding constant of 1a and 1b to the taxane site of assembled MTs were determined by the displacement of FTX2 from the taxane site in cross-linked MTs. The displacement isotherm of each ligand was measured at least three times in two different plates with a fluorescence polarization microplate reader, as described. A mixture of 50 nM taxane binding sites and 50 nM FTX2 in GAB buffer was sampled in a 96-well plate. […] After mixing the samples for 10 min by shaking at 250 rpm, they were incubated 20 min at the desired temperatures (26, 35 or 42 °C) and their anisotropies were measured using a Spark Tecan plater reader in fluorescence polarization at emission of 535 nm and excitation of 485 nm. A sample containing 50 nM taxane binding sites was employed as blank, and a 50 nM solution of FTX2 in GAB, 0.1 mM GTP was employed as anisotropy standard. G factor was calculated as a mean over several cells in different conditions. The molar saturation fraction, X b , of the probe for each competitor concentration is calculated from the polarization values measured, P. Measurements of the polarization of FTX2 completely displaced (P 0 ) and, in absence of the competitor ligand (P sat), are required for data processing. The binding of FTX2 in the presence of the competitor ligand (X b = (P–P 0 /P sat – P 0 ) · X sat) was calculated and best fitted to the equilibrium binding constant of the competitor assuming unitary stoichiometry and the binding constant of the reference ligand (FTX2) with a PC program (Equigra v5).
Once the equilibrium binding constants are measured at different temperatures, the standard free energy of binding at a given temperature is calculated from the binding constant as ΔG 0app = −RT Ln K a, the standard enthalpy of the binding reaction is calculated from the representation of Ln K a versus 1/T (Van’t Hoff representation), and the slope of this representation multiplied by −R is equal to −ΔH 0app. The standard entropy of binding to ΔS 0app is calculated from the slope of the linear regression of ΔG 0app versus T.

[2] = tested on: Tau-mCherry (Tau 441 isoform) on stabilized MTs from porcine brain tubulin; test: Tau-mCherry binding to stabilized MTs (TIRF); format: biochemical; conditions: 40 nM Tau-mCherry
From the text: Previous studies in vitro have shown that Tau molecules strongly prefer compacted GDP lattices. Tau binds cooperatively to MT surfaces, resulting in a cohesive layer depending on tau-tau interactions, termed MT envelope, which selectively regulates access to MT lattices, and shields MTs from severing enzymes. − On expanded PTX-MTs, Tau envelope also forms and the lattice can get locally compacted. To further explore how MT lattice structure influences Tau binding, we employed an in vitro reconstitution assay. We deposited stabilized MTs in a flow chamber, and visualized them via interference reflection microscopy (Figure C). We then added 10 nM Tau-mCherry (labeled purified Tau 441 isoform at the C-terminus with mCherry) and monitored its association with MTs using time-lapse TIRF microscopy. After 4 min, we increased Tau concentration to 40 nM, and continued imaging for an additional 4 min. We measured fluorescence intensities along MTs to quantify Tau binding (Movies S16–S27). […] PTXpost-MTs also supported […] faster envelope growth (0.20 ± 0.02 μm/s versus 0.054 ± 0.006 μm/s for PTXpre-MTs, Figure H).
(§1) Total Internal Reflection Fluorescence microscopy experiments were performed on an inverted widefield microscope Nikon-Ti2 E, equipped with a motorized XY-stage, a perfect focus system, Apo TIRF 60× oil NA 1.49 objective and PRIME BSY (Teledyne Photometrics) camera. MTs were visualized using Interference Reflection microscopy (IRM) and fluorescently labeled proteins were visualized sequentially by switching between microscope filter cubes for GFP and mCherry channels. The microscopes were controlled using NIS Elements software (Nikon). All experiments were conducted at RT.
(§2) Microscopy chambers were prepared from two sandwiched silanized glass coverslips (22 × 22 mm^2 and 18 × 18 mm^2) attached through parafilm strips (heated for 15–20 s at 60 °C and gently pressed together) to form ∼2.5 mm wide parallel flow channels. Prior to the chamber assembly, the coverslips were washed in 3 M KOH, cleaned using Zepto plasma cleaner (Diener electronic) and silanized with hexamethyldisilazane. Flow channels were first incubated with 40 μgml^–1 antibiotin antibodies (Sigma, B3640) in PBS for 10 min, followed by incubation with 1% Pluronic F127 (Sigma-Aldrich, P2443) in PBS for at least 1 h. F127 was washed with BRB80 (80 mM PIPES, 1 mM EGTA, 1 mM MgCl2, pH 6.9).
(§3) Porcine brain tubulin was isolated using the high-molarity PIPES procedure then mixed with Biotin labeled tubulin (Cytoskeleton Inc., T333P) in 1:49 ratio. All MTs were polymerized using 2% biotin-labeled tubulin. […] Polymerized MTs were centrifuged for 30 min at 18,000g in a Microfuge 18 Centrifuge (Beckman Coulter’s). […] Drug stabilized preassembly MTs (polymerized in the presence of drugs and GTP, stored and imaged in presence of drug) were polymerized from 4 mg mL^–1 biotinylated tubulin for 30 min at 37 °C in BRB80 supplemented with 4 mM MgCl2, 40 μM drug of interest in 5% DMSO, and 1 mM GTP. Polymerized MTs were centrifuged for 30 min at 18,000g in a Microfuge 18 Centrifuge (Beckman Coulter’s). […] GMPCPP stabilized MTs (GMPCPP polymerized) were assembled from 4 mg mL^–1 biotinylated tubulin for 2 h at 37 °C in BRB80 supplemented with 1 mM MgCl2 and 1 mM GMPCPP (Jena Bioscience, NU-405). Polymerized MTs were centrifuged for 30 min at 18,000g in a Microfuge 18 Centrifuge (Beckman Coulter’s) and pellets were resuspended and kept in BRB80.
Stabilized MTs were flushed into the channel and incubated for 15–30 s to allow for surface attachment. Unbound MTs were removed by washing with BRB80 supplemented with 10 μM of drug. Prior the experiment, the solution was exchanged by motility buffer, MB (BRB80 containing 10 mM DTT, 20 mM D-glucose, 0.1% Tween-20, 0.5 mg/mL casein, 1 mM Mg-ATP, 0.02 mg/mL catalase, 0.22 mg/mL glucose oxidase, 10 μM drug). Subsequently, a solution containing either 1.08 nM Kif5b-EGFP or 10/40 nM mCherry-Tau in MB was introduced into the chamber. […]

[3] = tested on: human Kif5B 1–905-EGFP on stabilized MTs; test: Single-molecule kinesin-1 motility assay on stabilized MTs (TIRF); format: biochemical; conditions: 1.08 nM Kif5b-EGFP, 10 μM drug
Procedure: To gain mechanistic insight into the kinesin phenotype observed in cells, we reduced system complexity using an in vitro reconstitution assay. Specifically, we performed time-lapse imaging using total internal reflection fluorescence (TIRF) microscopy with immobilized and stabilized MTs in a flow chamber, into which we introduced 1.08 nM kinesin-1 motors (constitutively active human Kif5B 1–905-EGFP). We then analyzed individual kinesin movements to quantify landing rates (number of motors per unit MT length per unit time), run lengths, interaction times, and average velocities (Figure D, Movies S12–S15). In contrast to our experiments in cells, here we evaluated each structural modification individually to dissect the effects of MT lattice parameters on kinesin-1 mediated transport.
as §1, §2, §3
Stabilized MTs were flushed into the channel and incubated for 15–30 s to allow for surface attachment. Unbound MTs were removed by washing with BRB80 supplemented with 10 μM of drug. Prior the experiment, the solution was exchanged by motility buffer, MB (BRB80 containing 10 mM DTT, 20 mM D-glucose, 0.1% Tween-20, 0.5 mg/mL casein, 1 mM Mg-ATP, 0.02 mg/mL catalase, 0.22 mg/mL glucose oxidase, 10 μM drug). Subsequently, a solution containing either 1.08 nM Kif5b-EGFP or 10/40 nM mCherry-Tau in MB was introduced into the chamber.
To assess kinesin-EGFP motility along MTs, an IRM image (50 ms exposure) was acquired followed by a 1 min video using 488 nm laser excitation (20% laser intensity, 300 ms exposure) with no delay. Two to three videos were recorded from different fields within the same channel and at least 2 channels were measure for each experimental condition. […]

Compound	incremental binding free energy (ΔΔG), PTX-to-derivative modification [1]	Tau-mCherry coating of stabilized MTs [2]	kinesin-1 landing rate on stabilized MTs [3]	kinesin-1 time bound on stabilized MTs [3]	kinesin-1 velocity on stabilized MTs [3]
Flutax-1 [reference compound]	−1.63 kJ mol^–1	–	–	–	–
Nc1nc2c(ncn2C2OC(COP(=O)(O)CP(=O)(O)OP(=O)(O)O)C(O)C2O)c(=O)[nH]1 (stereo not drawn) [GMPCPP, guanosine-5′-[(α,β)-methyleno]triphosphate]	–	bound diffusively	decreased on GMPCPP compared with PTX	increased the time bound	decreased the velocity
CC(=O)OC1C(=O)C2(C)C(OC(=O)C(C)NC(=O)CCCCCNC(=O)c3ccc(-c4c5ccc(=O)cc-5oc5cc(O)ccc45)c(C(=O)O)c3)CC3OCC3(OC(C)=O)C2C(OC(=O)c2ccccc2)C2(O)CC(OC(=O)C(O)C(NC(=O)c3ccccc3)c3ccccc3)C(C)=C1C2(C)C (stereo not drawn) [HFX, Hexaflutax, reference compound]	6.9 kJ mol^–1	–	–	–	–
